Assay results published in PubChem BioAssay AID328 (DTP/NCI, 2004).
Where “and” joins values, the source holds several entries; their conditions need not be identical. Equal values may be shown once. Inconclusive results and toxic doses are left out.

Tested on: BDF1 mice, P388 leukemia ip, median survival T/C
Test: NCI In Vivo Anticancer Drug Screen. Data for tumor model P388 Leukemia (intraperitoneal) in B6D2F1 (BDF1) mice
Conditions: endpoint: median survival time, higher = longer survival
How it was run: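 Reported as T/C, where T is the survival measurement in dosed animals and C the same measurement in vehicle controls.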

[1] = dose: 100.0 mg/kg/injection, schedule: Q04DX003 (ip), vehicle: saline
[2] = dose: 150.0 mg/kg/injection, schedule: Q01DX009 (ip), vehicle: saline
[3] = dose: 200.0 mg/kg/injection, schedule: Q04DX003 (ip), vehicle: saline
[4] = dose: 400.0 mg/kg/injection, schedule: Q04DX003 (ip), vehicle: saline
[5] = dose: 100.0 mg/kg/injection, schedule: Q04DX003 (ip), vehicle: saline with Tween-80
[6] = dose: 200.0 mg/kg/injection, schedule: Q04DX003 (ip), vehicle: saline with Tween-80
[7] = dose: 50.0 mg/kg/injection, schedule: Q01DX009 (ip), vehicle: Klucel (hydroxypropylcellulose) (HPC)
[8] = dose: 100.0 mg/kg/injection, schedule: Q01DX009 (ip), vehicle: saline
[9] = dose: 200.0 mg/kg/injection, schedule: Q01DX009 (ip), vehicle: saline
[10] = dose: 400.0 mg/kg/injection, schedule: Q01DX009 (ip), vehicle: saline
[11] = dose: 100.0 mg/kg/injection, schedule: Q01DX009 (ip), vehicle: saline with Tween-80
[12] = dose: 200.0 mg/kg/injection, schedule: Q01DX009 (ip), vehicle: saline with Tween-80
[13] = dose: 400.0 mg/kg/injection, schedule: Q01DX009 (ip), vehicle: saline with Tween-80
[14] = dose: 50.0 mg/kg/injection, schedule: Q04DX003 (ip), vehicle: saline with Tween-80
[15] = dose: 100.0 mg/kg/injection, schedule: Q04DX003 (ip), vehicle: Klucel (hydroxypropylcellulose) (HPC)
[16] = dose: 200.0 mg/kg/injection, schedule: Q04DX003 (ip), vehicle: Klucel (hydroxypropylcellulose) (HPC)
[17] = dose: 400.0 mg/kg/injection, schedule: Q04DX003 (ip), vehicle: Klucel (hydroxypropylcellulose) (HPC)
[18] = dose: 100.0 mg/kg/injection, schedule: Q01DX001 (ip), vehicle: Klucel (hydroxypropylcellulose) (HPC)
[19] = dose: 200.0 mg/kg/injection, schedule: Q01DX001 (ip), vehicle: Klucel (hydroxypropylcellulose) (HPC)
[20] = dose: 400.0 mg/kg/injection, schedule: Q01DX001 (ip), vehicle: Klucel (hydroxypropylcellulose) (HPC)
[21] = dose: 50.0 mg/kg/injection, schedule: Q01DX009 (ip), vehicle: saline

OCC1(O)CCC1
T/C (dose: 75.0 mg/kg/injection, schedule: Q01DX009 (ip), vehicle: saline): 95 % of control
T/C [1]: 96 % of control
T/C [2]: 104 % of control
T/C [3]: 103 % of control
T/C (dose: 300.0 mg/kg/injection, schedule: Q01DX009 (ip), vehicle: saline): 109 % of control
T/C [4]: 100 % of control

CCOC(=O)N1Cc2cc3cc(OC)c(OC)cc3nc2C1
T/C [5]: 105 % of control
T/C [6]: 90 % of control
T/C (dose: 400.0 mg/kg/injection, schedule: Q04DX003 (ip), vehicle: saline with Tween-80): 105 % of control

C[C@]12C=CC(=O)C=C1CC[C@H]1[C@@H]3C[C@@H](O)[C@](O)(C(=O)CO)[C@@]3(C)C[C@H](O)[C@@]12F
T/C [7]: 100 % of control
T/C (dose: 132.0 mg/kg/injection, schedule: Q01DX009 (ip), vehicle: Klucel (hydroxypropylcellulose) (HPC)): 118 % of control
T/C (dose: 200.0 mg/kg/injection, schedule: Q01DX009 (ip), vehicle: Klucel (hydroxypropylcellulose) (HPC)): 113 % of control

O=C(NC1CCCC2C(NC(=O)c3ccccc3)CCCC12)c1ccccc1 (configuration not stated)
T/C (dose: 66.0 mg/kg/injection, schedule: Q01DX009 (ip), vehicle: saline): 120 % of control
T/C (dose: 100.0 mg/kg/injection, schedule: Q01DX001 (ip), vehicle: saline): 104 % of control
T/C [8]: 100 % of control and 109 % of control
T/C [2]: 100 % of control and 109 % of control
T/C (dose: 200.0 mg/kg/injection, schedule: Q01DX001 (ip), vehicle: saline): 95 % of control
T/C [9]: 115 % of control
T/C (dose: 400.0 mg/kg/injection, schedule: Q01DX001 (ip), vehicle: saline): 104 % of control
T/C [10]: 100 % of control

COC(=O)CCCCC(=O)OC
T/C [11]: 100 % of control
T/C [12]: 100 % of control
T/C [13]: 109 % of control

CSc1nc(Cl)cc2c1ncn2C1OC(CO)C(O)C1O (configuration not stated)
T/C (dose: 12.5 mg/kg/injection, schedule: Q04DX003 (ip), vehicle: saline): 105 % of control
T/C (dose: 25.0 mg/kg/injection, schedule: Q04DX003 (ip), vehicle: saline): 102 % of control
T/C (dose: 50.0 mg/kg/injection, schedule: Q04DX003 (ip), vehicle: saline): 102 % of control
T/C [1]: 112 % of control
T/C [3]: 110 % of control
T/C [4]: 100 % of control

CCOC(=O)C1=C(O)c2c(sc(C)c2-c2ccccc2)N(S(=O)(=O)c2ccc(C)cc2)CC1
T/C [11]: 100 % of control
T/C [12]: 109 % of control
T/C [13]: 95 % of control

COCC(O)CCl (configuration not stated)
T/C [14]: 100 % of control
T/C [5]: 100 % of control and 110 % of control
T/C [6]: 100 % of control and 110 % of control

C[C@]12CC[C@@H]3c4ccc(O)cc4CC[C@H]3[C@@H]1C[C@@H](O)[C@@H]2O
T/C (dose: 12.5 mg/kg/injection, schedule: Q01DX009 (ip), vehicle: Klucel (hydroxypropylcellulose) (HPC)): 90 % of control
T/C (dose: 25.0 mg/kg/injection, schedule: Q01DX009 (ip), vehicle: Klucel (hydroxypropylcellulose) (HPC)): 100 % of control
T/C [7]: 109 % of control
T/C [15]: 104 % of control
T/C [16]: 104 % of control
T/C [17]: 100 % of control

c1ccc(-c2ccc(-c3cn4ccsc4n3)cc2)cc1
T/C [18]: 101 % of control
T/C [19]: 99 % of control
T/C [20]: 100 % of control

CCOC(=O)C(NC=O)C(=O)OCC
T/C [21]: 105 % of control
T/C [8]: 94 % of control
T/C [9]: 93 % of control
T/C [10]: 93 % of control

CCOC(=O)C(=Cc1ccc(O)c(OC)c1)C(=O)OCC
T/C (dose: 100.0 mg/kg/injection, schedule: Q01DX001 (ip), vehicle: saline with Tween-80): 90 % of control
T/C (dose: 200.0 mg/kg/injection, schedule: Q01DX001 (ip), vehicle: saline with Tween-80): 95 % of control
T/C (dose: 400.0 mg/kg/injection, schedule: Q01DX001 (ip), vehicle: saline with Tween-80): 104 % of control

CCCCN(C)C(=S)S[Te](SC(=S)N(C)CCCC)(SC(=S)N(C)CCCC)SC(=S)N(C)CCCC
T/C (dose: 45.0 mg/kg/injection, schedule: Q01DX010 (ip), vehicle: carboxymethylcellulose (CMC)): 100 % of control
T/C (dose: 90.0 mg/kg/injection, schedule: Q01DX010 (ip), vehicle: carboxymethylcellulose (CMC)): 105 % of control
T/C (dose: 180.0 mg/kg/injection, schedule: Q01DX010 (ip), vehicle: carboxymethylcellulose (CMC)): 115 % of control
T/C (dose: 360.0 mg/kg/injection, schedule: Q01DX010 (ip), vehicle: carboxymethylcellulose (CMC)): 110 % of control

Nc1nc2n[nH]nc2c(=O)[nH]1
T/C (dose: 25.0 mg/kg/injection, schedule: Q01DX010 (ip), vehicle: alkali diluted with saline): 118 % of control
T/C (dose: 100.0 mg/kg/injection, schedule: Q01DX010 (ip), vehicle: alkali diluted with saline): 165 % of control
T/C (dose: 200.0 mg/kg/injection, schedule: Q01DX010 (ip), vehicle: alkali diluted with saline): 160 % of control and 163 % of control

CCC(=O)O[C@H]1CC[C@H]2[C@@H]3C[C@H](C)C4=CC(=O)C=C[C@]4(C)[C@H]3C(=O)C[C@]12C
T/C [11]: 100 % of control
T/C [12]: 91 % of control
T/C [13]: 95 % of control

S=C1CCNCC1
T/C (dose: 12.5 mg/kg/injection, schedule: Q01DX009 (ip), vehicle: saline): 95 % of control
T/C (dose: 25.0 mg/kg/injection, schedule: Q01DX009 (ip), vehicle: saline): 86 % of control
T/C [21]: 100 % of control

Cc1sc(N)c(C#N)c1C
T/C [14]: 100 % of control
T/C [5]: 120 % of control
T/C [6]: 100 % of control

CCOc1ccc(N2C(=O)CC(Sc3ccccc3N)C2=O)cc1 (configuration not stated)
T/C [18]: 105 % of control
T/C [15]: 100 % of control
T/C [19]: 100 % of control
T/C [16]: 90 % of control
T/C [20]: 100 % of control
T/C [17]: 100 % of control

CC(=O)Nc1ccc(/C=C\c2ccnc3ccccc23)cc1
T/C (dose: 33.3 mg/kg/injection, schedule: Q04DX002 (ip), vehicle: saline with Tween-80): 111 % of control
T/C (dose: 50.0 mg/kg/injection, schedule: Q04DX002 (ip), vehicle: saline with Tween-80): 107 % of control
T/C (dose: 75.0 mg/kg/injection, schedule: Q04DX002 (ip), vehicle: saline with Tween-80): 112 % of control

COc1cc(-n2c(CCc3nc(-c4ccc(Cl)cc4)no3)n[nH]c2=S)c(OC)cc1Cl
T/C (dose: 50.0 mg/kg/injection, schedule: Q01DX009 (ip), vehicle: saline with Tween-80): 100 % of control
T/C [11]: 103 % of control
T/C [12]: 110 % of control

CCCC(=O)Nc1ccc(N)cc1OC
T/C (dose: 5.0 mg/kg/injection, schedule: Q01DX009 (ip), vehicle: saline): 100 % of control
T/C (dose: 5.0 mg/kg/injection, schedule: Q04DX003 (ip), vehicle: saline): 91 % of control
T/C (dose: 10.0 mg/kg/injection, schedule: Q01DX009 (ip), vehicle: saline): 100 % of control
T/C (dose: 10.0 mg/kg/injection, schedule: Q04DX003 (ip), vehicle: saline): 100 % of control
T/C (dose: 20.0 mg/kg/injection, schedule: Q01DX009 (ip), vehicle: saline): 100 % of control
T/C (dose: 20.0 mg/kg/injection, schedule: Q04DX003 (ip), vehicle: saline): 91 % of control

O=C(Nc1ccc(NC(=O)Nc2cccc(C3=NCCN3)c2)cc1)Nc1cccc(C2=NCCN2)c1
T/C (dose: 60.0 mg/kg/injection, schedule: Q01DX010 (ip), vehicle: saline): 165 % of control and 190 % of control
T/C (dose: 120.0 mg/kg/injection, schedule: Q01DX010 (ip), vehicle: saline): 160 % of control and 175 % of control
T/C (dose: 240.0 mg/kg/injection, schedule: Q01DX010 (ip), vehicle: saline): 175 % of control and 190 % of control
T/C (dose: 480.0 mg/kg/injection, schedule: Q01DX010 (ip), vehicle: saline): 250 % of control and 300 % of control

CC(CC(=O)c1ccccc1)=Nc1ccccc1.CC(CC(=O)c1ccccc1)=Nc1ccccc1.[Cu]
T/C (dose: 100.0 mg/kg/injection, schedule: Q01DX001 (ip), vehicle: saline sonified): 100 % of control
T/C (dose: 200.0 mg/kg/injection, schedule: Q01DX001 (ip), vehicle: saline sonified): 100 % of control
T/C (dose: 400.0 mg/kg/injection, schedule: Q01DX001 (ip), vehicle: saline sonified): 90 % of control
